# Experimental data reported in a melting point compilation (Tetko et al.; mined from patent text by program, amines drawn as free bases though some values may be those of a salt).
row,SMILES,melting point
1,Cc1c(N2CC(O)C2)c(F)cc2c(=O)c(C(=O)O)cn(-c3cc(N)c(F)cc3F)c12,206 to 208 °C
2,CCn1c(CCSC)nc(N2CCc3ccccc3CC2)c(C#N)c1=O,102 to 104 °C
3,COc1cc(Nc2c(C#N)cnc3cc(-c4coc(CN5CCN(C)CC5)c4)c(OC)cc23)c(Cl)cc1Cl,179 to 181 °C
4,NC(=O)N1CCc2cc(S(N)(=O)=O)sc2C1,205 to 208 °C
5,O=C1O[C@@H](CNC(=S)C(F)F)CN1c1ccc(N2CCS(=O)(=O)CC2)c(F)c1,146 to 147 °C
6,Cc1nc2ccc(F)cc2n1C1CC2CC(=O)CC2C1 (stereo not given),199 to 200 °C
7,Cc1cc(C)c(N2CCCc3c2nn(C)c3Br)c(Cl)c1,106 to 107 °C
8,OCCCC#CC#Cc1ccccc1,50.9 to 51.6 °C
9,C#CCOC(=O)N(I)C(C)C(=O)OC (stereo not given),100 to 102 °C
10,CCCCCCCCc1ccc(N(c2ccc(CCCCCCCC)cc2)C2(c3ccc(N(CC)CC)cc3C)OC(=O)c3nccnc32)cc1 (stereo not given),180 to 187 °C
11,COc1cc2cn(C3CCCCC3)nc2cc1OC,100 to 103 °C
12,CCc1noc(-c2cccc3c2C(=O)N(C)Cc2c(-c4nc(CC)no4)ncn2-3)n1,173 to 174 °C
13,CC(=CC(=O)O)C[N+](=O)[O-],85 °C
14,S=c1ncc2ccccc2[nH]1,234 to 235 °C
15,Nc1n[nH]cc1-c1cccc(N2CCC(N3CCCC3)CC2)c1,214 to 216 °C
16,O=C1CCC(N2C(=O)c3cccc(OCc4ccc(CN5CCN6N=C(C(F)(F)F)NC6C5)cc4)c3C2=O)C(=O)N1 (stereo not given),128 to 130 °C
17,CCS(=O)(=O)N(CCN(C)C(C)=O)c1ccc(N)cc1,140 °C
18,CCN(CC)C(=O)Cc1c(-c2ccc(Cl)cc2)nc2c(C)cc(C)nn12,162 to 165 °C
19,CCCCCCCCCOc1ccc(-c2ccc(OCC(C)CC)nn2)cc1 (stereo not given),87 °C
20,COCC(=O)N[C@H]1CC[C@H](CCN2CCN(c3nccc4ccoc34)CC2)CC1,132 °C
21,OC(CCl)COc1ccc(-c2nc(C(F)(F)F)c[nH]2)cc1 (stereo not given),181 to 183 °C
22,CCN(CC)c1ncnc2c1ncn2C1CC(F)C(CO)O1 (stereo not given),114 to 115 °C
23,Cn1c(=O)cn[nH]c1=O,173 °C
24,O=C1C2=C(CCCC2)C(=O)N1c1ccc(Cl)c2c1CC(CBr)O2 (stereo not given),134 to 136 °C

row,SMILES,melting point
1,C=CCn1ccc2cc(NC(=O)c3nc4ccc(Cl)cc4n3Cc3ccccc3)ccc21,154 to 155 °C
2,CC(C)c1cc(O)c2c(c1)OC(C)(C)C1=C2CN(CC(=O)NC(N)=O)CC1,164 to 166 °C
3,CCc1cccc(C)c1CNc1c(NC(C)(C)C)c(=O)c1=O,240 to 244 °C
4,CC(=O)OC1CCC2(C)C(CCC3C2CC(OC(C)=O)C2(C)C(C(C)CCC=O)CCC32)C1 (stereo not given),145 °C
5,CCOC(=O)C(=Cc1cscc1OC)N=[N+]=[N-],88 to 90 °C
6,CC(C)(C)c1cc2c(c(C(C)(C)C)c1)OC(=O)C2c1ccc(C(F)(F)F)cc1 (stereo not given),127 to 128 °C
7,COCC1OC(n2cnc3c(NC4CCCC4)ncnc32)C(O)C1O (stereo not given),164 to 166 °C
8,CSC(=NC#N)NCCCOc1cccc(CN2CCCC2)c1,107 to 108 °C
9,OC(c1nccs1)(c1nccs1)C(F)(F)F,113 to 115 °C
10,CC(=O)N1CC(CCN2CC=C(c3ccc(Cl)cc3)CC2)c2ccccc21 (stereo not given),116 to 118 °C
11,CCS(=O)(=O)N1CCN(Cc2ccc(COc3cccc4c3CN(C3CCC(=O)NC3=O)C4=O)cc2)CC1 (stereo not given),135 to 137 °C
12,CC(C)NC1=C(Cl)NC(N)(C(=O)NC#N)C=N1 (stereo not given),232 °C
13,CCOC(=O)c1cn(C2COC2)c2c(F)c(F)cc(F)c2c1=O,169 to 171 °C
14,Cn1c(Br)c(C#N)c(Br)c1C#N,175 to 178 °C
15,Fc1cc2c(Nc3ccc(Cl)c(Cl)c3)ncnc2cn1,262 to 264 °C
16,O=CC(Nc1ccc2c(c1)OCC(=O)N2)N1CCC(Cc2ccc(F)cc2)CC1 (stereo not given),156 to 161 °C
17,CC(NC(N)=C[N+](=O)[O-])C1=CCC=CC1 (stereo not given),120 to 125 °C
18,CCCN1Cc2c(ncnc2C2C(=O)Nc3ccc(C#N)cc32)N1 (stereo not given),> 300 °C
19,CC(C)(C)OC(=O)Nc1sc(-c2cncc(F)c2)nc1F,188 to 191 °C
20,Cn1nnnc1SCCCC(=O)c1ccco1,41 to 42 °C
21,COc1cc2c(cc1Nc1ncc(Cl)c(N[C@H]3[C@@H](C(N)=O)[C@@H]4C=C[C@H]3C4)n1)CCN(Cc1ncco1)CC2,110 to 119 °C
22,CC1=CC2=C(N3CN(N4CCCC4)C=C3N=N2)N(c2cc(Cl)ccc2Cl)C1,157 °C
23,CC1OC(n2c(Cl)nc3cc(Cl)c(Cl)cc32)C(O)C1O (stereo not given),85 to 86 °C

# Next, values leading:
row,melting point,SMILES
1,142 to 145 °C,CCOC(=O)c1c(S(=O)C(C)C)c2cc(OCc3ccccc3)ccc2n1C (stereo not given)
2,124 to 126 °C,Cc1ccc(SC(C#N)c2ccc(C(=O)c3cccs3)cc2)cc1 (stereo not given)
3,176 to 178 °C,COCCNc1nc2c(N)nc3ccccc3c2n1CC(C)(C)O
4,120 to 122 °C,CCc1ccc2c(c1)Cc1cc(C(C)=O)ccc1-2
5,275 to 279 °C,FC(F)(F)c1cccc(Nc2ccccc2-c2n[nH]c(=S)[nH]2)c1
6,139 to 144 °C,CNc1ccc(F)c2c1C(=O)c1ccccc1-2
7,170 to 171 °C,COC(=O)c1cc(C(=O)OC)cc(P(=O)(c2ccccc2)c2ccccc2)c1
8,227 to 229 °C,COC(=O)[C@@H]1Cc2cc(Cl)c(Cl)cc2[C@@H](NC(N)=O)C1 (relative stereo)
9,57 to 59 °C,CCCCCCCCCCCCCCCCCCOc1cc(NC(=O)OCc2ccccc2)cc(OC(C)=O)c1
10,203 to 204 °C,N#Cc1ccc(-n2c(=O)oc3ccc(-c4ccc(F)cc4F)cc3c2=O)cc1
11,165 to 168 °C,O=C1N=NC(CO)=C1c1ccccc1
12,144 to 145 °C,CC1(C)CC(c2ccc(Cl)cc2)=C(c2ccc(S(C)(=O)=O)cc2)C1
13,107 °C,CC(C)(C)OC(=O)NCCCCNC(=O)COc1ccc(Cl)cc1Cl
14,145 °C,Fc1ccccc1NC(=S)NCc1ccncc1
15,> 250 °C,O=C(Nc1ccncc1)c1n[nH]c2ccc(-c3cncc4[nH]ccc34)cc12
16,134 to 136 °C,COC(=O)c1ccc(-c2noc(C)n2)s1
17,76 to 81.5 °C,CC(=O)c1cccc(F)c1C(=O)O
18,248 °C,Cc1c(C(=O)O)ncn1Cc1ccc2oc(-c3ccccc3-c3nnn[nH]3)c(Br)c2c1
19,220 to 223 °C,O=C(O)c1ccc(Oc2ccccc2C(=O)O)cc1
20,49 to 50 °C,COCOc1cc(OC)cc(C)c1C(=O)c1ccc(OCc2ccccc2)cc1
21,> 250 °C,O=C(O)C(Cl)=Cc1cc(-n2c(=O)cc(C(F)(F)F)[nH]c2=O)ccc1Cl
22,179 to 181 °C,CS(=O)(=O)c1ccc(-c2cnn(CC(F)(F)F)c(=O)c2Oc2ccc(C#N)cc2)cc1
23,96 °C,COc1ccccc1C(=O)N(C)Cc1cccc(-c2ccc(CC3SC(=O)NC3=O)cc2)c1 (stereo not given)
24,260 °C,Nc1ccc(S(=O)(=O)c2cc(-c3ccsc3)nc(N3CCCC3)c2)cc1
25,111 to 116 °C,CCOC(=O)NN=Cc1cc(-n2c(=O)cc(C(F)(F)F)n(C)c2=O)ccc1Cl
26,107 to 108 °C,Nc1cnc2ccc(C(F)(F)F)cc2c1-c1ccccc1
27,94 to 95 °C,COc1cccnc1C(O)c1cc(F)ccc1F (stereo not given)

row,melting point,SMILES
1,112 to 113 °C,CC(=O)CSc1nc2ccccc2[nH]1
2,> 280 °C,CCOc1cc(C(=O)NC2CC(C)(C)NC(C)(C)C2)ccc1-c1nc2cc(Cl)c(Cl)cc2[nH]1
3,93 to 99 °C,COc1cc(N2CCCN(C[C@@H](C)O)CC2)ccc1Nc1ncc2ccc(-c3ccccc3N(C)S(C)(=O)=O)n2n1
4,195 °C,COc1ccc2nc(Cl)c(C=NO)cc2c1
5,151 to 153 °C,CCCCCC(=O)Nc1cccc2c1C1(COc3cc4c(cc31)OCCO4)C(=O)N2C (stereo not given)
6,149 to 151 °C,COc1ccc2c(c1)N(c1ccccc1F)C(=O)C2(C)NC(=O)OCc1ccccc1 (stereo not given)
7,152 to 155 °C,CCOC(=O)c1ccc(NC(=O)CC(c2ccc(Cl)cc2)c2ccc(Cl)cc2)cc1
8,184 to 186 °C,COc1ccc(CN(C)CCCSc2ccc(NC(=O)c3cccc4c(=O)c5cccc(OC)c5[nH]c34)cc2)cc1OC
9,132 to 136 °C,CCOC(=O)c1csnc1-c1cccc([N+](=O)[O-])c1
10,204 to 206 °C,COc1c(O)ccc2cc(-c3ccc(O)cc3)ccc12
11,152 °C,O=C(O)c1c(Cl)cc(N2C(=O)N3CCCC3(Cc3ccc(Br)cc3)C2=O)cc1Cl (stereo not given)
12,112 °C,COCCOc1ccc(/C=C/C(=O)O)c(OCC2CCCCC2)c1
13,103 to 105 °C,CCCOC(=O)c1cc(NC(=O)c2ccccc2C)ccc1Cl
14,98 °C,CSc1ncnn1C[C@]1(c2cccc(F)c2)O[C@@H]1c1ccccc1Cl (relative stereo)
15,200 °C,CCn1cc(-c2ccc(F)c(C)c2)nc1COCc1ccccc1
16,226 to 229 °C,O=C(O)/C=C/c1nncn1-c1ccc(F)cc1
17,155 to 157 °C,O=C(Nc1ccc(-n2nc(C(F)(F)F)cc2C(F)(F)F)cc1)c1ccc(F)cc1Cl
18,77 to 80 °C,CN1CCN(CCCCCCCCCOc2ccc3oc(-c4ccccc4)cc(=O)c3c2)CC1
19,95 to 100 °C,COC(=O)CCc1ccc(-n2cc(C)n(-c3ccc(C(=N)N)cc3)c2=O)cc1
20,184 °C,Cc1ccc(S(=O)(=O)OCC2CCN(c3nc4ccccc4s3)CC2)cc1
21,193 to 196 °C,Cc1ccc2nc(-c3ccc(-c4ccccc4)cc3)nc(C(=O)O)c2c1
22,183 to 185 °C,O=c1oc2c(c(O)c1C(c1ccccc1)C1CC1)CCC2 (stereo not given)
23,116 to 118 °C,COc1ccc2c(c1)OC(CCO)C(=O)N2Cc1cccc([N+](=O)[O-])c1 (stereo not given)
24,202 to 205 °C,CC(C)(C)c1cc2c(c(C(C)(C)C)c1)O[Si](c1ccccc1)(c1ccccc1)Oc1c(cc(C(C)(C)C)cc1C(C)(C)C)S2
25,74 to 75 °C,O=C(CCc1ccccc1)C(Cc1ccccc1)C(=O)CCc1ccccc1
26,68 to 69 °C,CCCCCCCCCCCCCCCCOc1ccc(OCC(=O)NCc2ccccn2)cc1
